Experimental data published in ChEMBL document CHEMBL5316299, “Discovery of Novel Drug-like PHGDH Inhibitors to Disrupt Serine Biosynthesis for Cancer Therapy” (J Med Chem, 2023).

Tests used:
[1] = target: T1, D-3-phosphoglycerate dehydrogenase (Homo sapiens, UniProt O43175); experiment: Inhibition of PHGDH (unknown origin) preincubated for 30 mins followed by substrate addition and measured after 5 mins
T1 sequence (O43175 whole entry): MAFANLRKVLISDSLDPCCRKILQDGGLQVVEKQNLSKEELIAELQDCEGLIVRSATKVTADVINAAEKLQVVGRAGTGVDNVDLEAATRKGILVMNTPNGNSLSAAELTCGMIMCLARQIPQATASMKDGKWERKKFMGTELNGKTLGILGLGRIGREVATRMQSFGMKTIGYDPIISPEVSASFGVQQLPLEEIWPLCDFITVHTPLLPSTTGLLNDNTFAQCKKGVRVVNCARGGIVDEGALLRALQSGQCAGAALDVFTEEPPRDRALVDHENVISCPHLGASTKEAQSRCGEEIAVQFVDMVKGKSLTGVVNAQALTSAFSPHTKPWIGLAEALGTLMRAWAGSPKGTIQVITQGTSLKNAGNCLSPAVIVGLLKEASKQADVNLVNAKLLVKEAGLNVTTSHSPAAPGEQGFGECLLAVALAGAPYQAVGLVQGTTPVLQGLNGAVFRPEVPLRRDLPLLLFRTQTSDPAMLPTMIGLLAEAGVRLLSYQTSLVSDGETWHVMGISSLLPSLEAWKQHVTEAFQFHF

MDA-MB-468 = experiment: Antiproliferative activity against human MDA-MB-468 cells expressing PHGDH assessed as reduction in cell viability measured for 72 hrs by CCK-8 assay; type: functional, cell-based; conditions: MDA-MB-468, 72 h
MCF-10A = experiment: Antiproliferative activity against human MCF-10A cells assessed as reduction in cell viability measured for 72 hrs by CCK-8 assay; type: functional, cell-based
[2] = Microsomal stability in human liver microsomes assessed as half life measured upto 60 mins by HPLC-MS/MS analysis; type: ADME, Microsome
[3] = Microsomal stability in rat liver microsomes assessed as half life measured upto 60 mins by HPLC-MS/MS analysis; type: ADME, Microsome
[4] = Microsomal stability in mouse liver microsomes assessed as half life measured upto 60 mins by HPLC-MS/MS analysis; type: ADME, Microsome
[5] = Microsomal stability in human liver microsomes assessed as intrinsic clearance measured upto 60 mins by HPLC-MS/MS analysis; type: ADME, Microsome; conditions: 1 h
[6] = Microsomal stability in rat liver microsomes assessed as intrinsic clearance measured upto 60 mins by HPLC-MS/MS analysis; type: ADME, Microsome; conditions: 1 h
[7] = Microsomal stability in mouse liver microsomes assessed as intrinsic clearance measured upto 60 mins by HPLC-MS/MS analysis; type: ADME, Microsome; conditions: 1 h
[8] = target: T1, D-3-phosphoglycerate dehydrogenase; experiment: Competitive inhibition of PHGDH (unknown origin) assessed as inhibition constant using NAD+ as substrate preincubated for 30 mins followed by substrate addition and measured after 5 mins by Lineweaver-Burk plot analysis
[9] = target: T1, D-3-phosphoglycerate dehydrogenase; experiment: Competitive inhibition of PHGDH (unknown origin) assessed as inhibition constant using 3-PG as substrate preincubated for 30 mins followed by substrate addition and measured after 5 mins by Lineweaver-Burk plot analysis
[10] = target: T1, D-3-phosphoglycerate dehydrogenase; experiment: Binding affinity to PHGDH (unknown origin) assessed as dissociation constant incubated for 60 mins by microscale thermophoresis analysis
[11] = target: T1, D-3-phosphoglycerate dehydrogenase; experiment: Binding affinity to his-tagged PHGDH ([…] residues) (unknown origin) assessed as dissociation constant by SPR analysis
[12] = target: T1, D-3-phosphoglycerate dehydrogenase; experiment: Inhibition of wild type PHGDH (unknown origin) preincubated for 30 mins followed by substrate addition and measured after 5 mins
[13] = target: D-3-phosphoglycerate dehydrogenase (Homo sapiens, UniProt O43175, D175A); experiment: Inhibition of PHGDH D175A mutant (unknown origin) preincubated for 30 mins followed by substrate addition and measured after 5 mins
BT-20 = experiment: Antiproliferative activity against human BT-20 cells expressing PHGDH assessed as reduction in cell viability measured for 72 hrs by CCK-8 assay; type: functional, cell-based; conditions: BT-20, 72 h
PC-9 [14] = experiment: Antiproliferative activity against human PC-9 cells expressing PHGDH assessed as reduction in cell viability measured for 72 hrs by CCK-8 assay; type: functional, cell-based; conditions: PC-9, 72 h
NCI-H1975 = experiment: Antiproliferative activity against human NCI-H1975 cells expressing PHGDH assessed as reduction in cell viability measured for 72 hrs by CCK-8 assay; type: functional, cell-based; conditions: NCI-H1975, 72 h
HCT-116 = experiment: Antiproliferative activity against human HCT-116 cells expressing PHGDH assessed as reduction in cell viability measured for 72 hrs by CCK-8 assay; type: functional, cell-based; conditions: HCT-116, 72 h
HCC827 = experiment: Antiproliferative activity against human HCC827 cells expressing PHGDH assessed as reduction in cell viability measured for 72 hrs by CCK-8 assay; type: functional, cell-based; conditions: HCC827, 72 h
NCI-H23 = experiment: Antiproliferative activity against human NCI-H23 cells assessed as reduction in cell viability measured for 72 hrs by CCK-8 assay; type: functional, cell-based; conditions: NCI-H23, 72 h
PANC-1 = experiment: Antiproliferative activity against human PANC-1 cells assessed as reduction in cell viability measured for 72 hrs by CCK-8 assay; type: functional, cell-based; conditions: PANC-1, 72 h
MDA-MB-231 = experiment: Antiproliferative activity against human MDA-MB-231 cells assessed as reduction in cell viability measured for 72 hrs by CCK-8 assay; type: functional, cell-based; conditions: MDA-MB-231, 72 h
ZR-75-1 = experiment: Antiproliferative activity against human ZR-75-1 cells assessed as reduction in cell viability measured for 72 hrs by CCK-8 assay; type: functional, cell-based; conditions: ZR-75-1, 72 h
MCF7 = experiment: Antiproliferative activity against human MCF7 cells assessed as reduction in cell viability measured for 72 hrs by CCK-8 assay; type: functional, cell-based; conditions: MCF7, 72 h
[15] = AUClast in ICR mouse at 1 mg/kg, iv measured for 0.05 to 24 hrs by UPLC-MS/MS analysis; type: ADME, organism-based; set-up: time upper 24 hrs, dose 1 mg/kg, time lower 0.05 hrs, route iv; conditions: in vivo
[16] = AUClast in ICR mouse at 3 mg/kg, po measured for 0.25 to 24 hrs by UPLC-MS/MS analysis; type: ADME, organism-based; set-up: dose 3 mg/kg, time 0.25-24 hrs, route po; conditions: in vivo
[17] = Half life in ICR mouse at 1 mg/kg, iv measured for 0.05 to 24 hrs by UPLC-MS/MS analysis; type: ADME, organism-based; conditions: in vivo, time 0.05-24 hrs
[18] = Half life in ICR mouse at 3 mg/kg, po measured for 0.25 to 24 hrs by UPLC-MS/MS analysis; type: ADME, organism-based; conditions: in vivo, time 0.25-24 hrs
[19] = Tmax in ICR mouse at 3 mg/kg, po measured for 0.25 to 24 hrs by UPLC-MS/MS analysis; type: ADME, organism-based; conditions: in vivo, time 0.25-24 hrs
[20] = Observed clearance in ICR mouse at 1 mg/kg, iv measured for 0.05 to 24 hrs by UPLC-MS/MS analysis; type: ADME, organism-based; conditions: in vivo, time 0.05-24 hrs
[21] = Cmax in ICR mouse at 3 mg/kg, po measured for 0.25 to 24 hrs by UPLC-MS/MS analysis; type: ADME, organism-based; set-up: dose 3 mg/kg, time 0.25-24 hrs, route po; conditions: in vivo
[22] = Oral bioavailability in ICR mouse at 3 mg/kg measured for 0.25 to 24 hrs by UPLC-MS/MS analysis; type: ADME, organism-based; conditions: in vivo, time 0.25-24 hrs
[23] = Drug exposure in BALB/c nude mouse tumor at 50 mg/kg, ip measured for 0.5 to 4 hrs; type: ADME, organism-based; conditions: in vivo, time 0.5-4 hrs
[24] = Drug exposure in BALB/c nude mouse plasma at 25 mg/kg, ip measured for 0.5 to 4 hrs; type: ADME, organism-based; conditions: in vivo, time 0.5-4 hrs
PC-9 [25] = experiment: Antitumor activity against human PC-9 cells xenografted in BALB/c nude mouse assessed as tumor growth inhibition at 12.5 mg/kg, ip administered every day for 31 days by digital vernier caliper analysis; type: functional; conditions: time 31 day
PC-9 [26] = experiment: Antitumor activity against human PC-9 cells xenografted in BALB/c nude mouse assessed as tumor growth inhibition at 25 mg/kg, ip administered every day for 31 days by digital vernier caliper analysis; type: functional; conditions: time 31 day
[27] = Toxicity in BALB/c nude mouse xenografted with human PC-9 cells assessed as loss of body weight at 25 mg/kg, ip administered every day for 31 days; type: organism-based; conditions: in vivo, 744 h, time 31 day
[28] = Toxicity in BALB/c nude mouse xenografted with human PC-9 cells assessed as abnormalities in kidney at 25 mg/kg, ip administered every day for 31 days by H and E staining based assay; type: organism-based; conditions: in vivo, 744 h, time 31 day
[29] = Toxicity in BALB/c nude mouse xenografted with human PC-9 cells assessed as abnormalities in lung at 25 mg/kg, ip administered every day for 31 days by H and E staining based assay; type: organism-based; conditions: in vivo, 744 h, time 31 day
[30] = Toxicity in BALB/c nude mouse xenografted with human PC-9 cells assessed as abnormalities in liver at 25 mg/kg, ip administered every day for 31 days by H and E staining based assay; type: organism-based; conditions: in vivo, 744 h, time 31 day

D-3-phosphoglycerate dehydrogenase (Homo sapiens, UniProt O43175, D175A), sequence (O43175 2-533 D175A limits assumed): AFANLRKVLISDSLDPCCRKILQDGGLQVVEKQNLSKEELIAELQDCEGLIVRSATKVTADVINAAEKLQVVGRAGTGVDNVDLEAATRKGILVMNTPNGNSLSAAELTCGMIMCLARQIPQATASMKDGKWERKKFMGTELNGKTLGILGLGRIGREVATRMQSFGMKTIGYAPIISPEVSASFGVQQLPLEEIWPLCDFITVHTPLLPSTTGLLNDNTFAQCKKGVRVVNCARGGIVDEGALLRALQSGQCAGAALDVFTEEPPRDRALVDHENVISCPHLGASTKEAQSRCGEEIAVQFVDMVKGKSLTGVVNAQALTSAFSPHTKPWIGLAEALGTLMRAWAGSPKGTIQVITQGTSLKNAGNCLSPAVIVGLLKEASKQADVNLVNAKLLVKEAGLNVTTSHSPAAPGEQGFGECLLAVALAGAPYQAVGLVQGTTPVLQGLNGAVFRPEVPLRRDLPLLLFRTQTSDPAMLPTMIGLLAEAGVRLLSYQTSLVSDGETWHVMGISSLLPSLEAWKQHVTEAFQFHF

## CC(=O)c1cccc(NS(=O)(=O)c2ccc(C(=O)Nc3nc(-c4cccc(F)c4)cs3)cc2)c1
[1]
  IC50: 2.8 µM
MDA-MB-468
  IC50: 5.3 µM
MCF-10A
  IC50: 52.9 µM
[2]
  half-life: 1.77 h
[3]
  half-life: 0.618 h
[4]
  half-life: 1.45 h
[5]
  CLH: 19.8 mL/min/g
[6]
  CLH: 56.6 mL/min/g
[7]
  CLH: 24.1 mL/min/g
[8]
  Ki: 15.2 µM
[9]
  Ki: 14.9 µM
[10]
  Kd: 2.33 µM
[11]
  Kd: 2.48 µM
[12]
  IC50: 2.8 µM
[13]
  IC50: > 50 µM
BT-20
  IC50: 5.3 µM
PC-9 [14]
  IC50: 3.5 µM
NCI-H1975
  IC50: 6.2 µM
HCT-116
  IC50: 9.6 µM
HCC827
  IC50: 21.6 µM
NCI-H23
  IC50: 28.6 µM
PANC-1
  IC50: 36.6 µM
MDA-MB-231
  IC50: 37.1 µM
ZR-75-1
  IC50: 38.3 µM
MCF7
  IC50: 39.2 µM
[15]
  AUClast: 38358 ng·mL·h
[16]
  AUClast: 94386 ng·mL·h
[17]
  half-life: 4.94 h
[18]
  half-life: 4.74 h
[19]
  Tmax: 3.33 h
[20]
  clearance: 0.48 mL/min/kg
[21]
  Cmax: 8840 ng/mL
[22]
  bioavailability: 82%
[23]
  Drug uptake: Active
[24]
  concentration: 30.8 µM
PC-9 [25]
  TGI: 41.4%
PC-9 [26]
  TGI: 68.9%
[27]
  Activity: Non-Toxic
[28]
  Activity: Non-Toxic
[29]
  Activity: Non-Toxic
[30]
  Activity: Non-Toxic
